The supplement of paper PMC10307832

Assays:
Assay in all cases: relative viability (nuclei count vs DMSO), 5 days (fraction); higher = more cells survive
Erlotinib + Crizotinib = compound: C#Cc1cccc(Nc2ncnc3cc(OCCOC)c(OCCOC)cc23)c1 [Erlotinib] + C[C@@H](Oc1cc(-c2cnn(C3CCNCC3)c2)cnc1N)c1c(Cl)ccc(F)c1Cl [Crizotinib] (partner 1 µM)
Method in brief: (§1)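 Relative viability equals treated-well nuclei counts divided by vehicle-well nuclei counts. Counts came from 4× images of lung cancer cell lines grown in 1536-well plates for 5 days after pin-tool dosing on the day after seeding. Dosing used one drug alone or a fixed anchor-drug dose plus five library-drug doses (not always all listed) in √10 steps, and values are medians of duplicate plates.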

AT9283 + Palbociclib = compound: O=C(Nc1c[nH]nc1-c1nc2ccc(CN3CCOCC3)cc2[nH]1)NC1CC1 [AT9283] + CC(=O)c1c(C)c2cnc(Nc3ccc(N4CCNCC4)cn3)nc2n(C2CCCC2)c1=O [Palbociclib] (partner 0.5 µM)
Method in brief: as §1

Erlotinib + Pictilisib = compound: C#Cc1cccc(Nc2ncnc3cc(OCCOC)c(OCCOC)cc23)c1 [Erlotinib] + CS(=O)(=O)N1CCN(Cc2cc3nc(-c4cccc5[nH]ncc45)nc(N4CCOCC4)c3s2)CC1 [Pictilisib] (partner 1 µM)
Method in brief: as §1

AT9283 + Phenformin = compound: O=C(Nc1c[nH]nc1-c1nc2ccc(CN3CCOCC3)cc2[nH]1)NC1CC1 [AT9283] + N=C(N)NC(=N)NCCc1ccccc1 [Phenformin] (partner 250 µM)
Method in brief: as §1

AT9283 + Lapatinib = compound: O=C(Nc1c[nH]nc1-c1nc2ccc(CN3CCOCC3)cc2[nH]1)NC1CC1 [AT9283] + CS(=O)(=O)CCNCc1ccc(-c2ccc3ncnc(Nc4ccc(OCc5cccc(F)c5)c(Cl)c4)c3c2)o1 [Lapatinib] (partner 2 µM)
Method in brief: as §1

Row | Cell Line | relative viability (Erlotinib + Crizotinib; first compound 0.02 µM) | relative viability (Erlotinib + Crizotinib; first compound 0.2 µM) | relative viability (Erlotinib + Crizotinib; first compound 0.6325 µM) | relative viability (Erlotinib + Crizotinib; first compound 2 µM) | relative viability (AT9283 + Palbociclib; first compound 0.003 µM) | relative viability (AT9283 + Palbociclib; first compound 0.03 µM) | relative viability (AT9283 + Palbociclib; first compound 0.09487 µM) | relative viability (AT9283 + Palbociclib; first compound 0.3 µM) | relative viability (Erlotinib + Pictilisib; first compound 0.02 µM) | relative viability (Erlotinib + Pictilisib; first compound 0.2 µM) | relative viability (Erlotinib + Pictilisib; first compound 0.6325 µM) | relative viability (Erlotinib + Pictilisib; first compound 2 µM) | relative viability (AT9283 + Phenformin; first compound 0.003 µM) | relative viability (AT9283 + Phenformin; first compound 0.03 µM) | relative viability (AT9283 + Phenformin; first compound 0.09487 µM) | relative viability (AT9283 + Phenformin; first compound 0.3 µM) | relative viability (AT9283 + Lapatinib; first compound 0.003 µM) | relative viability (AT9283 + Lapatinib; first compound 0.03 µM) | relative viability (AT9283 + Lapatinib; first compound 0.09487 µM) | relative viability (AT9283 + Lapatinib; first compound 0.3 µM)
1 | LC-2-ad | 0.468 | 0.509 | 0.458 | 0.329 | 0.458 | 0.415 | 0.29 | 0.229 | 0.557 | 0.427 | 0.429 | 0.303 | 0.449 | 0.363 | 0.224 | 0.193 | 0.938 | 0.0948 | 0.0976 | 0.0947
2 | PC-14 | 0.651 | 0.278 | 0.23 | 0.224 | 0.526 | 0.273 | 0.105 | 0.0809 | 0.221 | 0.0861 | 0.0876 | 0.0584 | 0.51 | 0.468 | 0.197 | 0.109 | 0.328 | 0.393 | 0.203 | 0.102
3 | 201T | 1 | 0.943 | 0.905 | 0.951 | 0.352 | 0.362 | 0.265 | 0.279 | 0.694 | 0.651 | 0.692 | 0.664 | 0.445 | 0.419 | 0.345 | 0.285 | 0.816 | 0.96 | 0.904 | 0.409
4 | NCI-H1651 | 0.876 | 0.801 | 0.92 | 0.786 | 0.476 | 0.502 | 0.534 | 0.237 | 0.511 | 0.628 | 0.662 | 0.5 | 0.293 | 0.358 | 0.277 | 0.219 | 0.83 | 0.481 | 0.215 | 0.279
5 | RERF-LC-KJ | 0.85 | 0.837 | 0.781 | 0.645 | 1.17 | 0.77 | 0.475 | 0.302 | 0.579 | 0.412 | 0.376 | 0.307 | 0.408 | 0.364 | 0.25 | 0.242 | 0.809 | 0.516 | 0.256 | 0.191
6 | COR-L 105 | – | 0.656 | 0.39 | 0.198 | 0.392 | 0.327 | 0.328 | 0.286 | 0.406 | 0.342 | 0.351 | 0.332 | 0.513 | 0.2 | 0.303 | 0.223 | 0.371 | 0.256 | 0.223 | 0.337
7 | ABC-1 | 1.07 | 1.14 | 1.44 | 1.18 | 0.664 | 0.381 | 0.295 | 0.325 | 0.656 | 0.71 | 0.847 | 0.589 | 0.231 | 0.159 | 0.233 | 0.192 | 0.938 | 1.19 | 0.476 | 0.46
8 | NCI-H1915 | 0.948 | 0.832 | 0.919 | 0.86 | 0.545 | 0.51 | 0.254 | 0.153 | – | – | 1.07 | 0.948 | 0.362 | 0.342 | 0.174 | 0.168 | 0.885 | 0.931 | 0.477 | 0.217
9 | CAL-12T | 0.964 | 0.636 | 0.356 | 0.249 | 0.543 | 0.257 | 0.165 | 0.217 | 0.277 | 0.388 | 0.419 | 0.274 | 0.607 | 0.345 | 0.267 | 0.18 | 0.587 | 0.299 | 0.23 | 0.238
10 | NCI-H1975 | 0.947 | 0.96 | 1.04 | 0.694 | 0.526 | 0.676 | 0.531 | 0.324 | 0.287 | 0.253 | 0.307 | 0.255 | 0.418 | 0.403 | 0.356 | 0.183 | 0.891 | 0.225 | 0.208 | 0.196
11 | PC-3 [JPC-3] | 0.887 | 0.409 | 0.324 | 0.377 | 0.602 | 0.533 | 0.575 | 0.484 | 0.573 | 0.395 | 0.416 | 0.295 | 0.478 | 0.476 | 0.423 | 0.377 | 0.444 | 0.436 | 0.422 | 0.304
12 | NCI-H2228 | 0.516 | 0.476 | 0.379 | 0.32 | 0.588 | 0.492 | 0.351 | 0.149 | 0.385 | 0.405 | 0.351 | 0.348 | 0.363 | 0.256 | 0.129 | 0.107 | 1.06 | 0.367 | 0.115 | 0.141
13 | HARA | 1.04 | 0.983 | 0.79 | 0.505 | 0.265 | 0.23 | 0.135 | 0.141 | 0.555 | 0.46 | 0.311 | 0.155 | 0.499 | 0.261 | 0.208 | 0.0751 | 0.767 | 0.504 | 0.0806 | 0.0666
14 | NCI-H2347 | 0.678 | 0.595 | 0.723 | 0.646 | 0.444 | 0.515 | 0.475 | 0.346 | 0.699 | 0.545 | 0.827 | 0.655 | 0.413 | 0.464 | 0.347 | 0.363 | 0.894 | 0.866 | 0.571 | 0.501
15 | LK-2 | 0.217 | 0.228 | 0.198 | 0.227 | 0.527 | 0.145 | 0.133 | 0.115 | 0.649 | 0.519 | 0.735 | 0.599 | 0.516 | 0.156 | 0.136 | 0.175 | 0.788 | 0.26 | 0.198 | 0.181
16 | NCI-H358 | 0.549 | 0.524 | 0.379 | 0.24 | 0.191 | 0.0774 | 0.0806 | 0.0739 | 0.319 | 0.313 | 0.303 | 0.28 | 0.309 | 0.1 | 0.0619 | 0.0785 | 0.413 | 0.192 | 0.176 | 0.16
